Where two headings read alike, the source gives them in different places.
Legend:
[1] = tested on: HeLa cells; test: [3H] Adenosine uptake assay; type: cell-based; conditions: accumulation of tritiated adenosine into HeLa cells, compound concentration range 10 μM to 0.032 nM, read-out: ADU inhibition IC50 (adenosine uptake inhibition potency)
Summary of the method: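 HeLa cells in HBSS + 5% FBS preincubated 30 min at ambient temperature with compound (0.25% DMSO), then [3H]adenosine (500 nM stock) added for 60 min. Uptake measured by scintillation proximity counting; IC50 from 4-parameter fit of counts vs log concentration.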

[2] = target: BTK enzyme (recombinant full-length BTK, hBTK) (Homo sapiens (Human), UniProt Q06187); test: Btk enzyme activity assay, LANCE TR-FRET; type: biochemical; conditions: 50 pM hBTK, 2 μM biotin-A5-peptide, 25 μM ATP; 60 minute compound & enzyme incubation; read-out: BTK binding IC50
Description: Btk Enzyme Activity Assay Methods
BTK enzymatic activity was determined with the LANCE (Lanthanide Chelate Excite) TR-FRET (Time-resolved fluorescence resonance energy transfer) assay. […] After 60 minutes incubation with detection reagents, reaction plates were read on a PerkinElmer EnVision plate reader using standard TR-FRET protocol.

Sequence of BTK enzyme (recombinant full-length BTK, hBTK) (Q06187 whole entry): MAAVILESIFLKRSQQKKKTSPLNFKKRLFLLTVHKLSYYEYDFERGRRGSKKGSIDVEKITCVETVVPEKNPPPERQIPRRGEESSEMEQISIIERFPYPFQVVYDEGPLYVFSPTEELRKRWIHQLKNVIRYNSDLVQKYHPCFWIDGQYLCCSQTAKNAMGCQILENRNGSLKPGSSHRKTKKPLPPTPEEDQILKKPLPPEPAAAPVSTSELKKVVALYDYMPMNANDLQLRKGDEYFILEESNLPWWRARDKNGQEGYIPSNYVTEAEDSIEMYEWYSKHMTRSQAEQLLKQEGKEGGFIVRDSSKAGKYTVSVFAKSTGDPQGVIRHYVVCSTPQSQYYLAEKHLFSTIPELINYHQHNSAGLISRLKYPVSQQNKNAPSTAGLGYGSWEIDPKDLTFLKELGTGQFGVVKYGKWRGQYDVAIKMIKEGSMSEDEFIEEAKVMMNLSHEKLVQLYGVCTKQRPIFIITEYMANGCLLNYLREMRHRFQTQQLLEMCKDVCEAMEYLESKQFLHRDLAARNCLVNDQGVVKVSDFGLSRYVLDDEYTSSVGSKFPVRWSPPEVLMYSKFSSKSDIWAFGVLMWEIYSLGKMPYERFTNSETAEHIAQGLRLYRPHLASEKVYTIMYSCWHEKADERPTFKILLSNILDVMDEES

Compound	IC50 ([1]; Homo sapiens, HeLa) [nM]	IC50 [2] [nM]	IC50 [1] [nM]
C[C@H]1CO[C@@H](c2nc(-c3ccc(C(=O)Nc4cc(C(F)(F)F)ccn4)cc3)c3c(N)nccn23)CN1[C@H]1CC[C@@](C)(C(=O)O)CC1 [Example 192, cis-4-{(2R,5S)-2-[8-amino-1-(4-{[4-(trifluoromethyl)pyridin-2-yl]carbamoyl}phenyl)imidazo [1,5-a]pyrazin-3-yl]-5-methylmorpholin-4-yl}-1-methylcyclohexanecarboxylic acid]	3080	2.8	
N#Cc1ccnc(NC(=O)c2ccc(-c3nc(C45C6C7C4C4C5C6C74C(=O)O)n4ccnc(N)c34)c(F)c2)c1 (stereo not shown) [Example 76, 4-(8-amino-1-(4-((4-cyanopyridin-2-yl)carbamoyl)-2-fluorophenyl)imidazo [1,5-a]pyrazin-3-yl)cubane-1-carboxylic acid]	666	0.41	
COc1cc(C(=O)Nc2cc(C(F)(F)F)ccn2)cc(F)c1-c1nc(C23CCC(C(=O)O)(CC2)CC3)n2ccnc(N)c12 [Example 108, 4-[8-amino-1-(2-fluoro-6-methoxy-4-{[4-(trifluoromethyl)pyridin-2-yl]carbamoyl}phenyl)imidazo[1,5-a]pyrazin-3-yl]bicyclo[2.2.2] octane-1-carboxylic acid]	6690	0.73	
CCOc1cc(C(=O)Nc2cc(C(F)(F)F)ccn2)ccc1-c1nc(C23C4C5C2C2C3C4C52C(=O)O)n2ccnc(N)c12 (stereo not shown) [Example 71, 4-(8-amino-1-(2-ethoxy-4-((4-(trifluoromethyl)pyridin-2-yl)carbamoyl)phenyl)imidazo[1,5-a]pyrazin-3-yl)cubane-1-carboxylic acid]	2470	0.65	
CC1(C)[C@H](C(=O)O)CC[C@@]1(C)c1nc(-c2ccc(C(=O)Nc3cc(C(F)(F)F)ccn3)cc2)c2c(N)nccn12 [Example 148, (1R,3R)-3-[8-amino-1-(4-{[4-(trifluoromethyl)pyridin-2-yl]carbamoyl}phenyl)imidazo[1,5-a]pyrazin-3-yl]-2,2,3-trimethylcyclopentane carboxylic acid]	10000	7.2	
CCOc1cc(C(=O)Nc2cc(C(F)(F)F)ccn2)ccc1-c1nc(C2CC3(CC(C(=O)O)C3)C2)n2ccnc(N)c12 (stereo not shown) [Example 93, 6-[8-amino-1-(2-ethoxy-4-{[4-(trifluoromethyl)pyridin-2-yl]carbamoyl}phenyl)imidazo[1,5-a]pyrazin-3-yl]spiro[3.3]heptane-2-carboxylic acid]	4640	0.51	
Nc1nccn2c([C@@H]3CC[C@H]4[C@H](C(=O)O)[C@H]43)nc(-c3ccc(C(=O)Nc4cc(C(F)(F)F)ccn4)cc3)c12 [Example 56, (1R,2R,5R,6S)-2-[8-amino-1-(4-{[4-(trifluoromethyl)pyridin-2-yl]carbamoyl}phenyl)imidazo[1,5-a]pyrazin-3-yl]bicyclo[3.1.0]hexane-6-carboxylic acid]	10000	0.52	
CC1(C(=O)O)CCC(c2nc(-c3ccc(C(=O)Nc4cc(C5CC5)ccn4)cc3F)c3c(N)ncc(Cl)n23)CC1 (stereo not shown) [Example 164, 4-(8-amino-5-chloro-1-{4-[(4-cyclopropylpyridin-2-yl)carbamoyl]-2-fluorophenyl}imidazo [1,5-a]pyrazin-3-yl)-1-methylcyclohexane-carboxylic acid]	6170	33	

More lines, in order of falling IC50 [2], values ahead:

IC50 ([1]; Homo sapiens, HeLa) [nM]	IC50 [2] [nM]	IC50 [1] [nM]	Compound
10000	24.9		CCOc1cc(C(=O)Nc2cc(C(F)(F)F)ccn2)ccc1-c1nc([C@H]2CC[C@@](C(=O)O)(C(C)C)C2)n2c(Cl)cnc(N)c12 [Example 111, (1S,3S)-3-[8-amino-5-chloro-1-(2-ethoxy-4-{[4-(trifluoromethyl)pyridin-2-yl]carbamoyl}phenyl)imidazo[1,5-a]pyrazin-3-yl]-1-(1-methylethyl) cyclopentane-carboxylic acid]
3870	3.8		C[C@]1(C(=O)O)CC[C@H](N2CCO[C@@H](c3nc(-c4ccc(C(=O)Nc5ccccn5)cc4)c4c(N)ncc(Cl)n34)C2)CC1 [Example 204, trans-4-[(2R)-2-{8-amino-5-chloro-1-[4-(pyridin-2-ylcarbamoyl)phenyl]imidazo [1,5-a]pyrazin-3-yl}morpholin-4-yl]-1-methylcyclohexanecarboxylic acid]
10000	1.3		C[C@H]1CO[C@@H](c2nc(-c3ccc(C(=O)Nc4cc(C(F)F)ccn4)cc3)c3c(N)ncc(Cl)n23)CN1[C@H]1CC[C@](C)(C(=O)O)CC1 [Example 205, trans-4-{(2R,5S)-2-[8-amino-5-chloro-1-(4-{[4-(difluoromethyl)pyridin-2-yl]carbamoyl}phenyl)imidazo [1,5-a]pyrazin-3-yl]-5-methylmorpholin-4-yl}-1-methylcyclohexanecarboxylic acid]
10000	1		C[C@H]1CO[C@@H](c2nc(-c3ccc(C(=O)Nc4cc(C(F)F)ccn4)cc3)c3c(N)nccn23)CN1[C@H]1CC[C@](C)(C(=O)O)CC1 [Example 206, trans-4-{(2R,5S)-2-[8-amino-1-(4-{[4-(difluoromethyl)pyridin-2-yl]carbamoyl}phenyl)imidazo [1,5-a]pyrazin-3-yl]-5-methylmorpholin-4-yl}-1-methylcyclohexanecarboxylic acid]
	0.87	7530	CC(C)(C(=O)O)C1CCC(c2nc(-c3ccc(C(=O)Nc4cc(C(F)(F)F)ccn4)cc3)c3c(N)nccn23)C1 (stereo not shown) [Example 97, 2-{3-[8-amino-1-(4-{[4-(trifluoromethyl)pyridin-2-yl]carbamoyl}phenyl)imidazo[1,5-a]pyrazin-3-yl]cyclopentyl}-2-methylpropanoic acid]
6060	0.6		Nc1nccn2c(C34CCC(C(=O)O)(CC3)C4)nc(-c3ccc(C(=O)Nc4cc(C(F)(F)F)ccn4)cc3)c12 [Example 65, 4-[8-amino-1-(4-{[4-(trifluoromethyl)pyridin-2-yl]carbamoyl}phenyl)imidazo[1,5-a]pyrazin-3-yl]bicyclo[2.2.1] heptane-1-carboxylic acid]
10000	0.47		CCOc1cc(C(=O)Nc2cc(C(F)(F)F)ccn2)cc(F)c1-c1nc([C@@]2(C)CC[C@](C)(C(=O)O)C2)n2ccnc(N)c12 [Example 126, (1S,3S)-3-[8-amino-1-(2-ethoxy-6-fluoro-4-{[4-(trifluoromethyl)pyridin-2-yl]carbamoyl}phenyl)imidazo[1,5-a]pyrazin-3-yl]-1,3-dimethylcyclopentane carboxylic acid]
531	0.41		Nc1nccn2c(C34CCC(C(=O)O)(CC3)CC4)nc(-c3ccc(C(=O)Nc4cc(C(F)(F)F)ccn4)cc3O)c12 [Example 161, 4-[8-amino-1-(2-hydroxy-4-{[4-(trifluoromethyl)pyridin-2-yl]carbamoyl}phenyl)imidazo[1,5-a]pyrazin-3-yl]bicyclo[2.2.2] octane-1-carboxylic acid]
	0.34	6070	C[C@@]1(C(=O)O)CCC[C@@](C)(c2nc(-c3ccc(C(=O)Nc4cc(C(F)(F)F)ccn4)cc3)c3c(N)nccn23)C1 [Example 138, (1R,3R)-3-[8-amino-1-(4-{[4-(trifluoromethyl)pyridin-2-yl]carbamoyl}phenyl)imidazo[1,5-a]pyrazin-3-yl]-1,3-dimethylcyclohexane-carboxylic acid]

From patent US10087188B2, “Benzamide imidazopyrazine Btk inhibitors” (MERCK SHARP & DOHME CORP., priority 2014, dated 2018)
